Assay results from PubChem BioAssay AID2060623 (Molecular Pharmacology Branch, DTP, NCI, 2025).

Test system: 227483-062-R1-J1-PDC complex spheroids with HUVEC/MSC, viability
Experiment: Anticancer human tumor 227483-062-R1-J1-PDC patient-derived pancreatic carcinoma cell line growth inhibition [CLK]
Conditions: for IC50: curve of first compound; for viability, T/C: stronger effect = lower value
Method in brief: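 Patient-derived tumor cells grown as complex spheroids with HUVEC endothelial cells and mesenchymal stem cells, treated with drug combinations. Concentrations descend in half-log steps from near clinical Cmax, or from 10 microM if Cmax unknown.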

[1] = second compound 0.0316 µM, first compound 0.0316 µM
[2] = second compound 0.0316 µM, first compound 0.1 µM
[3] = second compound 0.0316 µM, first compound 0.316 µM
[4] = second compound 0.0316 µM, first compound 1 µM
[5] = second compound 0.1 µM, first compound 0.0316 µM
[6] = second compound 0.1 µM, first compound 0.1 µM
[7] = second compound 0.1 µM, first compound 0.316 µM
[8] = second compound 0.1 µM, first compound 1 µM
[9] = second compound 0.316 µM, first compound 0.0316 µM
[10] = second compound 0.316 µM, first compound 0.1 µM
[11] = second compound 0.316 µM, first compound 0.316 µM
[12] = second compound 0.316 µM, first compound 1 µM
[13] = second compound 1 µM, first compound 0.0316 µM
[14] = second compound 1 µM, first compound 0.1 µM
[15] = second compound 1 µM, first compound 0.316 µM
[16] = second compound 1 µM, first compound 1 µM
[17] = second compound 3.16 µM, first compound 0.0316 µM
[18] = second compound 3.16 µM, first compound 0.1 µM
[19] = second compound 3.16 µM, first compound 0.316 µM
[20] = second compound 3.16 µM, first compound 1 µM
[21] = second compound 10 µM, first compound 0.0316 µM
[22] = second compound 10 µM, first compound 0.1 µM
[23] = second compound 10 µM, first compound 0.316 µM
[24] = second compound 10 µM, first compound 1 µM
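Also: spheroids exposed to compounds for seven days before readout.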
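For viability, T/C in this document: percent of DMSO vehicle control luminescence as 100% viability.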

## C=CC(=O)Nc1cc(Nc2nccc(-c3cn(C)c4ccccc34)n2)c(OC)cc1N(C)CCN(C)C + CNC(=O)c1ccc(Nc2nc(OC3CCCC3)c3c(-c4ccc5nc(C)oc5c4)c[nH]c3n2)c(OC)c1
Second compound 0.0316 µM
  IC50: > 300 nM
Second compound 0.1 µM
  IC50: > 300 nM
Second compound 0.316 µM
  IC50: > 300 nM
Second compound 1 µM
  IC50: > 300 nM
Second compound 3.16 µM
  IC50: < 0.949 nM
Second compound 10 µM
  IC50: < 0.949 nM
Second compound 0.0316 µM, first compound 0.000949 µM
  viability, T/C: 95.2%
Second compound 0.0316 µM, first compound 0.003 µM
  viability, T/C: 94.2%
Second compound 0.0316 µM, first compound 0.00949 µM
  viability, T/C: 108%
Second compound 0.0316 µM, first compound 0.03 µM
  viability, T/C: 98.6%
Second compound 0.0316 µM, first compound 0.0949 µM
  viability, T/C: 76.4%
Second compound 0.0316 µM, first compound 0.3 µM
  viability, T/C: 80.8%
Second compound 0.1 µM, first compound 0.000949 µM
  viability, T/C: 93.7%
Second compound 0.1 µM, first compound 0.003 µM
  viability, T/C: 103%
Second compound 0.1 µM, first compound 0.00949 µM
  viability, T/C: 85.4%
Second compound 0.1 µM, first compound 0.03 µM
  viability, T/C: 102%
Second compound 0.1 µM, first compound 0.0949 µM
  viability, T/C: 71.9%
Second compound 0.1 µM, first compound 0.3 µM
  viability, T/C: 69.7%
Second compound 0.316 µM, first compound 0.000949 µM
  viability, T/C: 73.1%
Second compound 0.316 µM, first compound 0.003 µM
  viability, T/C: 84.8%
Second compound 0.316 µM, first compound 0.00949 µM
  viability, T/C: 89.9%
Second compound 0.316 µM, first compound 0.03 µM
  viability, T/C: 63.8%
Second compound 0.316 µM, first compound 0.0949 µM
  viability, T/C: 83.7%
Second compound 0.316 µM, first compound 0.3 µM
  viability, T/C: 60.3%
Second compound 1 µM, first compound 0.000949 µM
  viability, T/C: 58.6%
Second compound 1 µM, first compound 0.003 µM
  viability, T/C: 50.4%
Second compound 1 µM, first compound 0.00949 µM
  viability, T/C: 69.6%
Second compound 1 µM, first compound 0.03 µM
  viability, T/C: 66.1%
Second compound 1 µM, first compound 0.0949 µM
  viability, T/C: 56.2%
Second compound 1 µM, first compound 0.3 µM
  viability, T/C: 49.6%
Second compound 3.16 µM, first compound 0.000949 µM
  viability, T/C: 45.4%
Second compound 3.16 µM, first compound 0.003 µM
  viability, T/C: 47.5%
Second compound 3.16 µM, first compound 0.00949 µM
  viability, T/C: 52.5%
Second compound 3.16 µM, first compound 0.03 µM
  viability, T/C: 42.2%
Second compound 3.16 µM, first compound 0.0949 µM
  viability, T/C: 51.1%
Second compound 3.16 µM, first compound 0.3 µM
  viability, T/C: 52.2%
Second compound 10 µM, first compound 0.000949 µM
  viability, T/C: 42.5%
Second compound 10 µM, first compound 0.003 µM
  viability, T/C: 41.9%
Second compound 10 µM, first compound 0.00949 µM
  viability, T/C: 38.4%
Second compound 10 µM, first compound 0.03 µM
  viability, T/C: 40.9%
Second compound 10 µM, first compound 0.0949 µM
  viability, T/C: 51.4%
Second compound 10 µM, first compound 0.3 µM
  viability, T/C: 32.9%

## CCN1CCN(Cc2ccc(Nc3ncc(F)c(-c4cc(F)c5nc(C)n(C(C)C)c5c4)n3)nc2)CC1 + CNC(=O)c1ccc(Nc2nc(OC3CCCC3)c3c(-c4ccc5nc(C)oc5c4)c[nH]c3n2)c(OC)c1
Second compound 0.0316 µM
  IC50: > 1000 nM
Second compound 0.1 µM
  IC50: > 1000 nM
Second compound 0.316 µM
  IC50: > 1000 nM
Second compound 1 µM
  IC50: > 1000 nM
Second compound 3.16 µM
  IC50: 577 nM
Second compound 10 µM
  IC50: > 1000 nM
Second compound 0.0316 µM, first compound 0.00316 µM
  viability, T/C: 103%
Second compound 0.0316 µM, first compound 0.01 µM
  viability, T/C: 89.3%
[1]
  viability, T/C: 86.9%
[2]
  viability, T/C: 82.1%
[3]
  viability, T/C: 79.3%
[4]
  viability, T/C: 81.8%
Second compound 0.1 µM, first compound 0.00316 µM
  viability, T/C: 103%
Second compound 0.1 µM, first compound 0.01 µM
  viability, T/C: 115%
[5]
  viability, T/C: 95.3%
[6]
  viability, T/C: 103%
[7]
  viability, T/C: 76.9%
[8]
  viability, T/C: 79%
Second compound 0.316 µM, first compound 0.00316 µM
  viability, T/C: 86.3%
Second compound 0.316 µM, first compound 0.01 µM
  viability, T/C: 94.2%
[9]
  viability, T/C: 88.8%
[10]
  viability, T/C: 74%
[11]
  viability, T/C: 70.7%
[12]
  viability, T/C: 67.9%
Second compound 1 µM, first compound 0.00316 µM
  viability, T/C: 75.4%
Second compound 1 µM, first compound 0.01 µM
  viability, T/C: 72.4%
[13]
  viability, T/C: 64.4%
[14]
  viability, T/C: 75.1%
[15]
  viability, T/C: 60.6%
[16]
  viability, T/C: 53.1%
Second compound 3.16 µM, first compound 0.00316 µM
  viability, T/C: 65%
Second compound 3.16 µM, first compound 0.01 µM
  viability, T/C: 64.7%
[17]
  viability, T/C: 61.7%
[18]
  viability, T/C: 57.4%
[19]
  viability, T/C: 60.8%
[20]
  viability, T/C: 41.4%
Second compound 10 µM, first compound 0.00316 µM
  viability, T/C: 41.9%
Second compound 10 µM, first compound 0.01 µM
  viability, T/C: 56.5%
[21]
  viability, T/C: 60.4%
[22]
  viability, T/C: 74.6%
[23]
  viability, T/C: 65.2%
[24]
  viability, T/C: 37.1%

## Nc1ccccc1NC(=O)c1ccc(CNC(=O)OCc2cccnc2)cc1 + CNC(=O)c1ccc(Nc2nc(OC3CCCC3)c3c(-c4ccc5nc(C)oc5c4)c[nH]c3n2)c(OC)c1
Second compound 0.0316 µM
  IC50: > 10000 nM
Second compound 0.1 µM
  IC50: 8510 nM
Second compound 0.316 µM
  IC50: 5130 nM
Second compound 1 µM
  IC50: 531 nM
Second compound 3.16 µM
  IC50: < 31.6 nM
Second compound 10 µM
  IC50: < 31.6 nM
[1]
  viability, T/C: 90.9%
[2]
  viability, T/C: 88.5%
[3]
  viability, T/C: 109%
[4]
  viability, T/C: 111%
Second compound 0.0316 µM, first compound 3.16 µM
  viability, T/C: 118%
Second compound 0.0316 µM, first compound 10 µM
  viability, T/C: 75.8%
[5]
  viability, T/C: 73.3%
[6]
  viability, T/C: 88.6%
[7]
  viability, T/C: 94.6%
[8]
  viability, T/C: 107%
Second compound 0.1 µM, first compound 3.16 µM
  viability, T/C: 96.5%
Second compound 0.1 µM, first compound 10 µM
  viability, T/C: 43%
[9]
  viability, T/C: 82.1%
[10]
  viability, T/C: 72.9%
[11]
  viability, T/C: 78.7%
[12]
  viability, T/C: 78.3%
Second compound 0.316 µM, first compound 3.16 µM
  viability, T/C: 65.8%
Second compound 0.316 µM, first compound 10 µM
  viability, T/C: 28%
[13]
  viability, T/C: 53.6%
[14]
  viability, T/C: 45.7%
[15]
  viability, T/C: 53.4%
[16]
  viability, T/C: 50.1%
Second compound 1 µM, first compound 3.16 µM
  viability, T/C: 40.6%
Second compound 1 µM, first compound 10 µM
  viability, T/C: 14.5%
[17]
  viability, T/C: 37.4%
[18]
  viability, T/C: 44.2%
[19]
  viability, T/C: 39.7%
[20]
  viability, T/C: 30.1%
Second compound 3.16 µM, first compound 3.16 µM
  viability, T/C: 17.3%
Second compound 3.16 µM, first compound 10 µM
  viability, T/C: 7.51%
[21]
  viability, T/C: 33%
[22]
  viability, T/C: 30.8%
[23]
  viability, T/C: 32.2%
[24]
  viability, T/C: 19.4%
Second compound 10 µM, first compound 3.16 µM
  viability, T/C: 16.6%
Second compound 10 µM, first compound 10 µM
  viability, T/C: 5.89%
